From patent US20250059220A1, “SUBSTITUTED BENZOTHIOPHENE DERIVATIVES AND METHODS OF USE THEREOF” (Merck Sharp & Dohme LLC, priority 2021, published 2025)

Assays:
human PTPN2 (1-387) = human PTPN2 (1-387) (Homo sapiens (Human), UniProt P17706); test: Human PTPN2 Biochemical Assay; conditions: DiFMUP substrate
Summary of the method: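 Fluorogenic DiFMUP hydrolysis (1 h, room temperature, read ex 360/em 460 nm) after 30 min compound preincubation with PTPN2 residues 1-387, in 50 mM Tris pH 7.4, 150 mM NaCl, 0.01% Tween20, 0.5 mM DTT. Effects scaled between buffer and enzyme controls, 4-parameter fit gives EC50.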

human PTPN1 (1-435) = human PTPN1 (1-435) (Homo sapiens (Human), UniProt P18031); test: Human PTPN1 Biochemical Assay; conditions: DiFMUP substrate, read-out: PTP1B IC50
human PTPN1 (1-435), sequence (P18031 whole entry): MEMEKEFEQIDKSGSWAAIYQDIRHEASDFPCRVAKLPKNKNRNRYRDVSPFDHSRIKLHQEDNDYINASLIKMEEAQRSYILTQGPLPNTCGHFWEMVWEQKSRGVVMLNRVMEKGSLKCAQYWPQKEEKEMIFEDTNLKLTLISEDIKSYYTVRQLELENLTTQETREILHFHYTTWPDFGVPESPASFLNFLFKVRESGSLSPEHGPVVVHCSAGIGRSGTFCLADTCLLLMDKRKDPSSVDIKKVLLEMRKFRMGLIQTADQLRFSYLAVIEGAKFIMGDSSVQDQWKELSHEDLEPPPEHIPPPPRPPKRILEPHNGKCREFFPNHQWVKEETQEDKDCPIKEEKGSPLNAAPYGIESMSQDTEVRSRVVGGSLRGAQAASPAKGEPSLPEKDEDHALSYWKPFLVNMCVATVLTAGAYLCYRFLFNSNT
Summary of the method: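 Read-out is DiFMUP hydrolysis fluorescence (360 nm excitation, 460 nm emission) after 1 h at room temperature, following 30 min enzyme–compound preincubation.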

human PTPN2 (1-387), sequence (P17706 other isoform, or with tags, fused parts or gaps): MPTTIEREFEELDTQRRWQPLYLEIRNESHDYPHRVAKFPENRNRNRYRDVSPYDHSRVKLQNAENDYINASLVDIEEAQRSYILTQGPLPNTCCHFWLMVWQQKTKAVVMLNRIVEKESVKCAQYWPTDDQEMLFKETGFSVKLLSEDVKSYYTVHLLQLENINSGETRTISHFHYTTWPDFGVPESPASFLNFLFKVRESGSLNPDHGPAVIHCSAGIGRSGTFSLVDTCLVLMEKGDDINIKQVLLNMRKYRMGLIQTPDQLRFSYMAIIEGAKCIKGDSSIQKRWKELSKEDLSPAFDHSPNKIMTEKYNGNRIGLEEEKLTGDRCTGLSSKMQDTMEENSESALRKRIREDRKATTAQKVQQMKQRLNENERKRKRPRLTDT

Structure (SMILES)	IC50 (human PTPN2 (1-387))	IC50 (human PTPN1 (1-435))
COc1cc(Cl)ccc1COc1cc(C(N)=O)cc2c(Br)c(C(F)(F)P(=O)(O)O)sc12 [Compound 362]	42.8 nM	76.7 nM
COc1cc(COc2cc(C(N)=O)cc3c(Br)c(C(F)(F)P(=O)(O)O)sc23)ccc1C#N [Compound 363]	112 nM	152 nM
CS(=O)(=O)CCCOc1cc(-c2cnn[nH]2)cc2c(Br)c(C(F)(F)P(=O)(O)O)sc12 [Compound 364]	2.5 nM	2.6 nM
NS(=O)(=O)CCCOc1cc(-c2cnn[nH]2)cc2c(Br)c(C(F)(F)P(=O)(O)O)sc12 [Compound 365]	2.5 nM	2.5 nM
Cc1nn[nH]c1-c1cc(OCCCC(F)(F)F)c2sc(C(F)(F)P(=O)(O)O)c(Br)c2c1 [Compound 366]	2.6 nM	2.5 nM
O=P(O)(O)C(F)(F)c1sc2c(OCC3CC3(F)F)cc(-c3cnn[nH]3)cc2c1Br (stereo not drawn) [Compound 367]	12.2 nM	14.1 nM
O=P(O)(O)C(F)(F)c1sc2c(OCC3CC3(F)F)cc(-c3cnn[nH]3)cc2c1Br (stereo not drawn) [Compound 368]	3.53 nM	3.1 nM
CS(=O)(=O)c1ccc(COc2cc(-c3cnn[nH]3)cc3c(Br)c(C(F)(F)P(=O)(O)O)sc23)cc1 [Compound 369]	< 2.5 nM	< 2.5 nM
CCCC(C)Oc1cc(C(N)=O)cc2c(Br)c(C(F)(F)P(=O)(O)O)sc12 (stereo not drawn) [Compound 370]	140 nM	133 nM
CNS(=O)(=O)CCCOc1cc(C(N)=O)cc2c(Br)c(C(F)(F)P(=O)(O)O)sc12 [Compound 373]	12 nM	8.6 nM
CN(C)S(=O)(=O)CCCOc1cc(C(N)=O)cc2c(Br)c(C(F)(F)P(=O)(O)O)sc12 [Compound 374]	14 nM	12.5 nM
NC(=O)CCCCOc1cc(C(N)=O)cc2c(Br)c(C(F)(F)P(=O)(O)O)sc12 [Compound 375]	77.9 nM	67.4 nM
NC(=O)c1cc(OCc2ccc(CS(N)(=O)=O)cc2)c2sc(C(F)(F)P(=O)(O)O)c(Br)c2c1 [Compound 376]	37.9 nM	32.6 nM
CS(=O)(=O)c1ccc(COc2cc(C(N)=O)cc3c(Br)c(C(F)(F)P(=O)(O)O)sc23)cc1 [Compound 377]	4.52 nM	5.8 nM
NC(=O)c1cc(OC[C@@H]2C[C@@H]2F)c2sc(C(F)(F)P(=O)(O)O)c(Br)c2c1 [Compound 378]	91.9 nM	74.4 nM
CS(=O)(=O)c1ccc(COc2cc(C(N)=O)cc3c(Br)c(C(F)(F)P(=O)(O)O)sc23)cn1 [Compound 379]	3.98 nM	5.2 nM
NC(=O)c1cc(OCc2ccc(S(N)(=O)=O)nc2)c2sc(C(F)(F)P(=O)(O)O)c(Br)c2c1 [Compound 380]	2.5 nM	2.9 nM
NC(=O)c1cc(OC[C@H]2C[C@H](S(N)(=O)=O)C2)c2sc(C(F)(F)P(=O)(O)O)c(Br)c2c1 [Compound 381]	2.5 nM	2.5 nM
NC(=O)c1cc(OC[C@H]2C[C@@H](S(N)(=O)=O)C2)c2sc(C(F)(F)P(=O)(O)O)c(Br)c2c1 [Compound 382]	32 nM	27.6 nM
NC(=O)c1cc(OCc2cccc(C(F)(F)F)c2)c2sc(C(F)(F)P(=O)(O)O)c(Br)c2c1 [Compound 383]	79.6 nM	92.3 nM
NC(=O)c1cc(OCc2cc(C(F)(F)F)cc(C(F)(F)F)c2)c2sc(C(F)(F)P(=O)(O)O)c(Br)c2c1 [Compound 384]	351 nM	299 nM
NC(=O)c1cc(OCc2cccc3ccccc23)c2sc(C(F)(F)P(=O)(O)O)c(Br)c2c1 [Compound 385]	124 nM	166 nM
NC(=O)c1cc(OCc2ccc3c(c2)CCS3(=O)=O)c2sc(C(F)(F)P(=O)(O)O)c(Br)c2c1 [Compound 386]	17.1 nM	26 nM
CS(=O)(=O)c1ccc(COc2cc(C(N)=O)cc3c(Br)c(C(F)(F)P(=O)(O)O)sc23)c(Cl)c1 [Compound 387]	15.1 nM	35.8 nM
NC(=O)c1cc(OCc2ccc(C3(C(F)(F)F)CC3)cc2)c2sc(C(F)(F)P(=O)(O)O)c(Br)c2c1 [Compound 388]	59.3 nM	132 nM
CS(=O)(=O)c1ccc(COc2cc(C(N)=O)cc3c(Br)c(C(F)(F)P(=O)(O)O)sc23)c(F)c1 [Compound 389]	7.8 nM	14.1 nM

Structure (SMILES)	IC50 (human PTPN2 (1-387))	IC50 (human PTPN1 (1-435))
CS(=O)(=O)c1ccc(COc2cc(C(N)=O)cc3c(Br)c(C(F)(F)P(=O)(O)O)sc23)cc1Cl [Compound 390]	4 nM	8.7 nM
Cc1cc(S(C)(=O)=O)ccc1COc1cc(C(N)=O)cc2c(Br)c(C(F)(F)P(=O)(O)O)sc12 [Compound 391]	6.3 nM	12.4 nM
CC1CCS(=O)(=O)C1CCOc1cc(C(N)=O)cc2c(Br)c(C(F)(F)P(=O)(O)O)sc12 (stereo not drawn) [Compound 392]	170 nM	153 nM
CC1(c2ccc(COc3cc(C(N)=O)cc4c(Br)c(C(F)(F)P(=O)(O)O)sc34)cc2)CC1 [Compound 396]	20.5 nM	68.1 nM
NC(=O)c1cc(OCc2ccc(S(N)(=O)=O)cc2)c2sc(C(F)(F)P(=O)(O)O)c(Br)c2c1 [Compound 397]	4.4 nM	7.7 nM
NC(=O)c1cc(OCc2ccc(-c3cncnc3)cc2)c2sc(C(F)(F)P(=O)(O)O)c(Br)c2c1 [Compound 398]	23.2 nM	78.6 nM
NC(=O)c1cc(OCc2ccc(C3CC3)cc2Cl)c2sc(C(F)(F)P(=O)(O)O)c(Br)c2c1 [Compound 399]	69 nM	213 nM
NC(=O)c1cc(OCc2ccc([C@H]3CC[C@H](C(F)(F)F)CC3)cc2)c2sc(C(F)(F)P(=O)(O)O)c(Br)c2c1 [Compound 400]	214 nM	736 nM
NC(=O)c1cc(OCc2ccc(-c3cccnc3)cc2)c2sc(C(F)(F)P(=O)(O)O)c(Br)c2c1 [Compound 401]	4.4 nM	36.2 nM
NC(=O)c1cc(OCc2ccc(-c3ccncc3)cc2)c2sc(C(F)(F)P(=O)(O)O)c(Br)c2c1 [Compound 402]	10.1 nM	59.5 nM
NC(=O)c1cc(OCC23CC(S(N)(=O)=O)(C2)C3)c2sc(C(F)(F)P(=O)(O)O)c(Br)c2c1 [Compound 403]	4 nM	4.6 nM
O=P(O)(O)C(F)(F)c1sc2c(OCCCC(F)(F)F)cc(-c3cn[nH]c3)cc2c1Br [Compound 404, ((3-bromo-5-(1H-pyrazol-4-yl)-7-(4,4,4-trifluorobutoxy)benzo[b]thiophen-2-yl)difluoromethyl)phosphonic acid]	224 nM	287 nM
C#Cc1cc(OCCCC(F)(F)F)c2sc(C(F)(F)P(=O)(O)O)c(Br)c2c1 [Compound 405, ((3-bromo-5-ethynyl-7-(4,4,4-trifluorobutoxy)benzo[b]thiophen-2-yl)difluoromethyl)phosphonic acid]	288 nM	290 nM
O=P(O)(O)C(F)(F)c1sc2c(OCCCC(F)(F)F)cc(I)cc2c1Br [Compound 406, ((3-bromo-5-iodo-7-(4,4,4-trifluorobutoxy)benzo[b]thiophen-2-yl)difluoromethyl)phosphonic acid]	518 nM	487 nM
O=C(O)c1cc(OCCCC(F)(F)F)c2sc(C(F)(F)P(=O)(O)O)c(Br)c2c1 [Compound 407]	200 nM	191 nM
O=P(O)(O)C(F)(F)c1sc2c(OCCCC(F)(F)F)cc(CO)cc2c1Br [Compound 408]	684 nM	518 nM
CNC(=O)c1cc(OCc2ccc(S(C)(=O)=O)cc2)c2sc(C(F)(F)P(=O)(O)O)c(Br)c2c1 [Compound 409]	2.6 nM	3.7 nM
O=P(O)(O)C(F)(F)c1sc2c(OCCCC(F)(F)F)cccc2c1Br [Compound 410, ((3-bromo-7-(4,4,4-trifluorobutoxy)benzo[b]thiophen-2-yl)difluoromethyl)phosphonic acid]	225 nM	281 nM
CS(=N)(=O)Cc1cc(OCCCC(F)(F)F)c2sc(C(F)(F)P(=O)(O)O)c(Br)c2c1 (stereo not drawn) [Compound 412]	359 nM	323 nM
CS(=N)(=O)c1cc(OCCCC(F)(F)F)c2sc(C(F)(F)P(=O)(O)O)c(Br)c2c1 (stereo not drawn) [Compound 413]	7400 nM	4080 nM
CS(=N)(=O)c1cc(OCCCC(F)(F)F)c2sc(C(F)(F)P(=O)(O)O)c(Br)c2c1 (stereo not drawn) [Compound 414]	6700 nM	3590 nM
NC(=O)c1cc(-c2cc[nH]n2)c2sc(C(F)(F)P(=O)(O)O)c(Br)c2c1 [Compound 415, ((3-bromo-5-carbamoyl-7-(1H-pyrazol-3-yl)benzo[b]thiophen-2-yl)difluoromethyl)phosphonic acid]	3840 nM	3930 nM
O=P(O)(O)C(F)(F)c1sc2c(OCCCC(F)(F)F)cc(-c3c[nH]cn3)cc2c1Br [Compound 416, ((3-bromo-5-(1H-imidazol-4-yl)-7-(4,4,4-trifluorobutoxy)benzo[b]thiophen-2-yl)difluoromethyl)phosphonic acid]	92 nM	137 nM
O=P(O)(O)C(F)(F)c1sc2c(OCCCC(F)(F)F)cc(-c3nnc(C4CC4)[nH]3)cc2c1Br [Compound 418]	2.7 nM	2.5 nM
O=P(O)(O)C(F)(F)c1sc2c(OCCCC(F)(F)F)cc(-c3nnc(C(F)(F)F)[nH]3)cc2c1Br [Compound 420, ((3-bromo-7-(4,4,4-trifluorobutoxy)-5-(5-(trifluoromethyl)-4H-1,2,4-triazol-3-yl)benzo[b]thiophen-2-yl)difluoromethyl)phosphonic acid]	2.85 nM	2.7 nM
